Measured values: patent US12065430B2, “Indazole compound or salt thereof” (TAIHO PHARMACEUTICAL CO., LTD., priority 2018, dated 2024)

Columns and labels:
NCI-H358 cells = test: Growth inhibition activity on KRAS-G12C mutant cell line (NCI-H358) (in vitro, CellTiter-Glo2.0); type: cell-based; details: Homo sapiens, NCI-H358, 72 h, 3-day culture in the presence of the compound
Description: NCI-H358 cells (ATCC, Cat #: CRL-5807), which are a KRAS-G12C mutant human lung cancer cell line, were suspended in a 10% fetal bovine serum-containing RPMI1640 medium (manufactured by Fujifilm Wako Pure Chemical Corporation.). The cell suspension was seeded into each well of a 384-well flat-bottom microplate and cultured in an incubator containing 5% CO2 gas at 37° C. for 1 day. The test compound was dissolved in DMSO, and diluted with DMSO to give a concentration 500 times the final concentration. The solution of the test compound in DMSO was diluted with the medium used for suspending cells and added to each well of the cell-culture plate to give a DMSO final concentration of 0.2%, followed by culture in an incubator containing 5% CO2 gas at 37° C. for another 3 days. The cell count after 3-day culture in the presence of the compound was measured using CellTiter-Glo2.0 (manufactured by Promega Corporation) in accordance with the protocol recommended by Promega Corporation. The growth inhibition rate was calculated from the following equation, and the concentration of the test compound at which 50% inhibition was achieved (IC50 (nM)) was determined. […] Growth Inhibition Rate (%)=(C−T)/(C)×100 • T: the emission intensity in a well into which a test compound was added. • C: the emission intensity in a well into which a test compound was not added.

G12C K-Ras4B (1-169) = G12C K-Ras4B (1-169) (Homo sapiens (Human), UniProt P01116, G12C); test: Test of compounds on whether to bind to KRASG12C (LC-MS compound binding rate); details: final compound concentration of 2 μM, 1 μM protein, 25° C. for 2 hours
How it was run: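 K-Ras4B (1-169) WT and G12C (1 μM each, mixed) in 1×TBS, 0.1 mM TCEP incubated with compound (final 2 μM) 2 h at 25° C; quenched with 0.2% formic acid. Intact-protein LC-MS (ESI+, deconvoluted); binding rate = adduct signal/(adduct + unbound signal), giving selectivity over WT.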

Row | SMILES | IC50 (NCI-H358 cells) [nM] | binding rate for G12C K-Ras4B (1-169) (G12C K-Ras4B (1-169))
1 | C=CC(=O)N1CC(NC(=O)c2c(C(F)F)nc(CNc3n[nH]c4cc(Cl)c(C(C)(C)C)cc34)n2C(C)C)C1 [Example 33, N-(1-acryloylazetidin-3-yl)-2-(((5-(tert-butyl)-6-chloro-1H-indazol-3-yl)amino)methyl)-4-(difluoromethyl)-1-isopropyl-1H-imidazole-5-carboxamide] | 153 | A (a binding rate of 80% or more is rated “A,”)
2 | C=CC(=O)N1CC(NC(=O)c2c(Cl)nc(CNc3n[nH]c4cc(Cl)c(C(C)(C)C)cc34)n2C(C)C)C1 [Example 35, N-(1-acryloylazetidin-3-yl)-2-(((5-(tert-butyl)-6-chloro-1H-indazol-3-yl)amino)methyl)-4-chloro-1-isopropyl-1H-imidazole-5-carboxamide] | 67 | B (a binding rate of 60% or more and less than 80% is rated “B,”)
3 | C=CC(=O)N1CC(NC(=O)c2c(Cl)nc(CNc3n[nH]c4cc(Cl)c(C(C)(C)C)cc34)n2C)C1 [Example 29, N-(1-acryloylazetidin-3-yl)-2-(((5-(tert-butyl)-6-chloro-1H-indazol-3-yl)amino)methyl)-4-chloro-1-methyl-1H-imidazole-5-carboxamide] | 34 | B (a binding rate of 60% or more and less than 80% is rated “B,”)
4 | C=CC(=O)N1CC(NC(=O)c2c(C)nc(CNc3n[nH]c4cc(Cl)c(C(C)(C)C)cc34)n2C)C1 [Example 3, N-(1-acryloylazetidin-3-yl)-2-(((5-(tert-butyl)-6-chloro-1H-indazol-3-yl)amino)methyl)-1,4-dimethyl-1H-imidazole-5-carboxamide] | 114 | A (a binding rate of 80% or more is rated “A,”)
5 | C=CC(=O)N1CC(NC(=O)c2c(C)nc(CNc3n[nH]c4cc(Cl)c(C(C)(C)C)cc34)n2C(C)CC)C1 (stereo not drawn) [Example 20, N-(1-acryloylazetidin-3-yl)-1-(sec-butyl)-2-(((5-(tert-butyl)-6-chloro-1H-indazol-3-yl)amino)methyl)-4-methyl-1H-imidazole-5-carboxamide] |  | A (a binding rate of 80% or more is rated “A,”)
6 | C=CC(=O)N1C[C@@H](COC)[C@@H](NC(=O)c2c(C)nc(CNc3n[nH]c4cc(Cl)c(C(C)(C)C)cc34)n2C)C1 [Example 67, N-((3R,4R)-1-acryloyl-4-(methoxymethyl)pyrrolidin-3-yl)-2-(((5-(tert-butyl)-6-chloro-1H-indazol-3-yl)amino)methyl)-1,4-dimethyl-1H-imidazole-5-carboxamide] |  | A (a binding rate of 80% or more is rated “A,”)
7 | C=CC(=O)N1C[C@@H](CN(C)C)[C@@H](NC(=O)c2c(C)nc(CNc3n[nH]c4cc(Cl)c(C(C)(C)C)cc34)n2C)C1 [Example 68, N-((3R,4R)-1-acryloyl-4-((dimethylamino)methyl)pyrrolidin-3-yl)-2-(((5-(tert-butyl)-6-chloro-1H-indazol-3-yl)amino)methyl)-1,4-dimethyl-1H-imidazole-5-carboxamide] |  | C (a binding rate of 40% or more and less than 60% is rated “C,”)
8 | C=CC(=O)N1CC(NC(=O)c2c(C)nc(CNc3n[nH]c4cc(Cl)c(C(C)(C)C)cc34)n2CCN(C)C)C1 [Example 16, N-(1-acryloylazetidin-3-yl)-2-(((5-(tert-butyl)-6-chloro-1H-indazol-3-yl)amino)methyl)-1-(2-(dimethylamino)ethyl)-4-methyl-1H-imidazole-5-carboxamide] |  | B (a binding rate of 60% or more and less than 80% is rated “B,”)
9 | C=CC(=O)N1CC(NC(=O)c2cnc(CNc3n[nH]c4cc(Cl)c(C(C)(C)C)cc34)n2Cc2cc(OC)cc(OC)c2)C1 [Example 88, N-(1-acryloylazetidin-3-yl)-2-(((5-(tert-butyl)-6-chloro-1H-indazol-3-yl)amino)methyl)-1-(3,5-dimethoxybenzyl)-1H-imidazole-5-carboxamide] |  | B (a binding rate of 60% or more and less than 80% is rated “B,”)

More lines, main results first:

Row | IC50 (NCI-H358 cells) [nM] | SMILES | binding rate for G12C K-Ras4B (1-169) (G12C K-Ras4B (1-169))
10 | 52 | C=CC(=O)N1CC(NC(=O)c2c(Cl)nc(CNc3n[nH]c4cc(Cl)c(C(C)(C)C)cc34)n2[C@H]2CCOC2)C1 [Example 97, (S)—N-(1-acryloylazetidin-3-yl)-2-(((5-(tert-butyl)-6-chloro-1H-indazol-3-yl)amino)methyl)-4-chloro-1-(tetrahydrofuran-3-yl)-1H-imidazole-5-carboxamide] | A (a binding rate of 80% or more is rated “A,”)
11 | 54 | C=CC(=O)N1CC(NC(=O)c2c(Cl)nc(CNc3n[nH]c4cc(Cl)c(C(C)(C)C)cc34)n2C2CCOCC2)C1 [Example 101, N-(1-acryloylazetidin-3-yl)-2-(((5-(tert-butyl)-6-chloro-1H-indazol-3-yl)amino)methyl)-4-chloro-1-(tetrahydro-2H-pyran-4-yl)-1H-imidazole-5-carboxamide] | A (a binding rate of 80% or more is rated “A,”)
12 | 76 | C=CC(=O)N1CC(NC(=O)c2c(Cl)nc(CNc3n[nH]c4cc(Cl)c(C(C)(C)C)cc34)n2C2CCCC2)C1 [Example 105, N-(1-acryloylazetidin-3-yl)-2-(((5-(tert-butyl)-6-chloro-1H-indazol-3-yl)amino)methyl)-4-chloro-1-cyclopentyl-1H-imidazole-5-carboxamide] | A (a binding rate of 80% or more is rated “A,”)
13 | 350 | C=CC(=O)N1C[C@@H](C)[C@@H](NC(=O)c2c(Cl)nc(CNc3n[nH]c4cc(Cl)c(C(C)(C)C)cc34)n2C)C1 [Example 78, N-((3R,4R)-1-acryloyl-4-methylpyrrolidin-3-yl)-2-(((5-(tert-butyl)-6-chloro-1H-indazol-3-yl)amino)methyl)-4-chloro-1-methyl-1H-imidazole-5-carboxamide] | B (a binding rate of 60% or more and less than 80% is rated “B,”)
14 | 78 | C=CC(=O)N1CC(NC(=O)c2c(Cl)nc(CNc3n[nH]c4cc(Cl)c(C(C)(C)C)cc34)n2C2CN(C(C)C)C2)C1 [Example 107, N-(1-acryloylazetidin-3-yl)-2-(((5-(tert-butyl)-6-chloro-1H-indazol-3-yl)amino)methyl)-4-chloro-1-(1-isopropylazetidin-3-yl)-1H-imidazole-5-carboxamide] | A (a binding rate of 80% or more is rated “A,”)
15 | 29 | C=CC(=O)N1CC(NC(=O)c2c(Cl)nc(CNc3n[nH]c4cc(Cl)c(C(C)(C)C)cc34)n2C2CCN(C)CC2)C1 [Example 103, N-(1-acryloylazetidin-3-yl)-2-(((5-(tert-butyl)-6-chloro-1H-indazol-3-yl)amino)methyl)-4-chloro-1-(1-methylpiperidin-4-yl)-1H-imidazole-5-carboxamide] | A (a binding rate of 80% or more is rated “A,”)
16 | 232 | C=CC(=O)N1C[C@H](NC(=O)c2c(Cl)nc(CNc3n[nH]c4cc(Cl)c(C(C)(C)C)cc34)n2C)[C@@H](F)C1 [Example 76, N-((3S,4S)-1-acryloyl-4-fluoropyrrolidin-3-yl)-2-(((5-(tert-butyl)-6-chloro-1H-indazol-3-yl)amino)methyl)-4-chloro-1-methyl-1H-imidazole-5-carboxamide] | A (a binding rate of 80% or more is rated “A,”)
17 | 35 | C=CC(=O)N1CC(NC(=O)c2c(Cl)nc(CNc3n[nH]c4cc(Cl)c(C(C)(C)C)cc34)n2[C@@H]2C[C@@H](C)N(CC(F)F)C2)C1 [Example 126, N-(1-acryloylazetidin-3-yl)-2-(((5-(tert-butyl)-6-chloro-1H-indazol-3-yl)amino)methyl)-4-chloro-1-((3R,5R)-1-(2,2-difluoroethyl)-5-methylpyrrolidin-3-yl)-1H-imidazole-5-carboxamide] | A (a binding rate of 80% or more is rated “A,”)
18 | 32 | C=CC(=O)N1CC(NC(=O)c2c(Cl)nc(CNc3n[nH]c4cc(Cl)c(C(C)(C)C)cc34)n2[C@@H]2CCN(C(C)C)C2)C1 [Example 114, (R)—N-(1-acryloylazetidin-3-yl)-2-(((5-(tert-butyl)-6-chloro-1H-indazol-3-yl)amino)methyl)-4-chloro-1-(1-isopropylpyrrolidin-3-yl)-1H-imidazole-5-carboxamide] | A (a binding rate of 80% or more is rated “A,”)
19 | 91 | C=CC(=O)N1CC(NC(=O)c2c(Cl)nc(CNc3n[nH]c4cc(Cl)c(C(C)(C)C)cc34)n2C2CCCOC2)C1 (stereo not drawn) [Example 104, N-(1-acryloylazetidin-3-yl)-2-(((5-(tert-butyl)-6-chloro-1H-indazol-3-yl)amino)methyl)-4-chloro-1-(tetrahydro-2H-pyran-3-yl)-1H-imidazole-5-carboxamide] | A (a binding rate of 80% or more is rated “A,”)
